Assay results from US20150224085A1, “METHOD OF ADMINISTERING A 5,5-FUSED HETEROARYLENE HEPATITIS C VIRUS INHIBITOR FOR TREATING OF PREVENTING HEPATITIS C VIRUS INFECTION” (priority 2012, published 2015).
Values joined by “and” are separate entries in the source; they are usually repeats but may differ in a detail not shown here. Identical values can stand only once. Like-named read-outs stand apart in the source and are kept apart here.

Columns and labels:
HCV Genotype 1b = test: Phase I/IIa Group B: plasma HCV RNA reduction after single dose, Genotype 1b; type: in vivo, hepatitis C virus; settings: 1 subject
Protocol: (§1) The phase I/IIa study was designed to evaluate safety and tolerability, pharmacokinetics (PK), food effect, and antiviral activity with regard to the Compound. The key safety parameters that were evaluated in the trial include adverse events (AEs), physical examination, vital signs, 12-lead electrocardiogram (ECG), and standard safety laboratory tests. The key antiviral activity parameters that were evaluated in the trial include changes in plasma HCV RNA and emergence of resistance mutations. The key pharmacokinetic parameters that were evaluated in the trial include plasma and urine concentrations of the Compound.
(§2) In the phase I/IIa study, plasma HCV RNA was quantitated using a validated commercial assay (COBAS® TAQMAN®) with a lower limit of quantitation of 25 IU/mL. HCV RNA genotyping was performed at Baseline using the Versant HCV Genotype Assay (LiPA) 2.0.
(§3) In Group B, the Compound was evaluated in an open-label, single day study in 18 subjects with chronic HCV Genotype 1, 2, or 3 infection. […] For all cohorts, dosing was under fasted in this study.

[1] = tested on: HCV Genotypes 1, 2, 3, and 4; test: Phase I/IIa Groups C and D: antiviral activity across genotypes; type: in vivo, hepatitis C virus
Protocol: as §1, §2
(§4) In Group C, the Compound was evaluated in a randomized, double-blind, placebo-controlled, parallel dosing study in 34 treatment-naive, genotype 1 HCV-infected subjects.
In Group D, the Compound was evaluated in an randomized, double-blind, placebo-controlled, parallel dosing study in 30 treatment-naive, genotypes 2, 3, and 4 HCV-infected subjects.
(§5) For all cohorts, dosing was under fasted in this study.

HCV Genotype 1a [2] = test: Phase I/IIa Group C: HCV RNA reduction, 3-day dosing, Genotype 1a; type: in vivo, hepatitis C virus
Protocol: as §1, §2, §4, §5

HCV Genotype 1a [3] = test: Phase I/IIa Group B: plasma HCV RNA reduction after single dose, Genotype 1a; type: in vivo, hepatitis C virus; settings: for Maximum Viral Load Reduction after Single Dose: 1 subject; for Mean maximum viral load reduction after Single Dose: 2 subjects
Protocol: as §1, §2, §3

[4] = Phase I/IIa Group A: pharmacokinetics in healthy subjects; type: in vivo, human; settings: for Cmax / half-life / AUC(0-inf) / Tmax: human, plasma, oral; for AUC(0-inf): read-out: AUC0-inf; for Tmax: PK Day 1, median (min-max)
Protocol: The phase I/IIa study was designed to evaluate safety and tolerability, pharmacokinetics (PK), food effect, and antiviral activity with regard to the Compound. The key safety parameters that were evaluated in the trial include adverse events (AEs), physical examination, vital signs, 12-lead electrocardiogram (ECG), and standard safety laboratory tests. The key antiviral activity parameters that were evaluated in the trial include changes in plasma HCV RNA and emergence of resistance mutations. The key pharmacokinetic parameters that were evaluated in the trial include plasma and urine concentrations of the Compound. […]
The Compound was first evaluated in a randomized, double-blind, placebo-controlled, sequential dose escalation study in 48 healthy subjects. For each cohort, there were 6 subjects to receive the Compound and 2 subjects to receive placebo. Except cohort 5a, the Compound was administered under fasted conditions.
For the food effect study (cohort 5a), subjects received a single dose of 50 mg of the Compound or placebo on Days 1 and 8, with a 7 day washout between dosing periods. In the food effect study, the subjects were randomized among two groups, differing by fasted/fed dosing sequences as shown in Table 3.

[5] = healthy subjects, 100 mg QD x 7 days, fasted, PK Day 1, mean ± SD
[6] = 5 mg, healthy subjects, 5 mg single dose, fasted, PK Day 1, mean ± SD
[7] = 10 mg, healthy subjects, 10 mg single dose, fasted, PK Day 1, mean ± SD
[8] = 25 mg, healthy subjects, 25 mg single dose, fasted, PK Day 1, mean ± SD
[9] = 50 mg, healthy subjects, 50 mg single dose, fasted, PK Day 1, mean ± SD

With COC(=O)N[C@H](C(=O)N1CCC[C@H]1c1nc2cc(-c3csc4c(-c5ccc(-c6cnc([C@@H]7CCCN7C(=O)[C@H](NC(=O)OC)c7ccccc7)[nH]6)cc5)csc34)ccc2[nH]1)C(C)C [the Compound, [(S)-1-((S)-2-{6-[6-(4-{(S)-2-[1-((R)-2-methoxycarbonylamino-2-phenyl-acetyl)-pyrrolidin-2-yl]-3H-imidazol-4-yl}-phenyl)-thieno[3,2-b]thiophen-3-yl]-1H-benzoimidazol-2-yl}-pyrrolidine-1-carbonyl)-2-methyl-propyl]-carbamic acid methyl ester] the “Maximum Viral Load Reduction after Single Dose” value (HCV Genotype 1b; 1 mg single dose) was 3.1^2 log10 IU/mL, the “Maximum Viral Load Reduction after Single Dose” value (HCV Genotype 1b; 10 mg single dose) was 3.7^2 log10 IU/mL and the “Maximum Viral Load Reduction after Single Dose” value (HCV Genotype 1b; 50 mg single dose) was 3.2^2 log10 IU/mL. For the same compound, the “Maximum Viral Load Reduction after Single Dose” value (HCV Genotype 1b; 100 mg single dose) was 3.7^2 log10 IU/mL, the antiviral activity ([1]; Genotype 1, 2, 3, and 4 HCV-infected subjects) was “potent, pan-genotypic antiviral activity” and the “rebound (>1.0 log10 IU/mL increase over nadir)” value ([1]; during the 3 days of dosing) was “No subject experienced a rebound”. The “mean maximal HCV RNA reductions” value ([1]; total dose of 100 mg/day for 3 days, Genotypes 1, 3, and 4) was “approximately 3.5 log10 IU/mL”, the “Mean (Range) Maximal HCV RNA Reduction from Baseline” value (HCV Genotype 1a [2]; 25 mg QD x 3 days, n = 5) was 3.3 (2.9-3.7) log10 IU/mL and the “Mean (Range) Maximal HCV RNA Reduction from Baseline” value (HCV Genotype 1a [2]; 50 mg BID x 3 days, n = 6) was 3.2 (2.7-3.8) log10 IU/mL. For the same compound, the “Mean (Range) Maximal HCV RNA Reduction from Baseline” value (HCV Genotype 1a [2]; 50 mg QD x 3 days, n = 6) was 3.6 (3.3-3.9) log10 IU/mL, the “Mean (Range) Maximal HCV RNA Reduction from Baseline” value (HCV Genotype 1a [2]; 100 mg QD x 3 days, n = 6) was 3.5 (2.6-4.3) log10 IU/mL and the “Maximum Viral Load Reduction after Single Dose” value (HCV Genotype 1a [3]; 1 mg single dose) was 0.8^2 log10 IU/mL. For the same compound, the “Mean maximum viral load reduction after Single Dose” value (HCV Genotype 1a [3]; 5 mg single dose) was 2.6^1 log10 IU/mL, the “Maximum Viral Load Reduction after Single Dose” value (HCV Genotype 1a [3]; 10 mg single dose) was 2.9^2 log10 IU/mL and the “Mean maximum viral load reduction after Single Dose” value (HCV Genotype 1a [3]; 25 mg single dose) was 3.7^1 log10 IU/mL. The “Maximum Viral Load Reduction after Single Dose” value (HCV Genotype 1a [3]; 50 mg single dose) was 2.5^2 log10 IU/mL, the “Maximum Viral Load Reduction after Single Dose” value (HCV Genotype 1a [3]; 100 mg single dose) was 3.3^2 log10 IU/mL and the “reduction of exposure by food” value ([4]; 50 mg, after high-fat (about 55 g), high-calorie (about 950 kcal) meal) was “approximately two-thirds”. The “increase of AUC0-inf upon reaching steady state” value ([4]; QD dosing x 7 days) was “approximately 50%”, the “increase of Ctrough upon reaching steady state” value ([4]; QD dosing x 7 days) was “about 70%” and the Ctrough ([4]; healthy subjects, 5 mg single dose, fasted, PK Day 1, mean ± SD) was 1.6 ± 0.5 ng/mL. It also gave a Ctrough ([4]; healthy subjects, 10 mg single dose, fasted, PK Day 1, mean ± SD) of 3.7 ± 1.8 ng/mL, a Ctrough ([4]; healthy subjects, 25 mg single dose, fasted, PK Day 1, mean ± SD) of 8.1 ± 2.9 ng/mL and a Ctrough ([4]; healthy subjects, 50 mg single dose, fasted, PK Day 1, mean ± SD) of 13.4 ± 4.6 ng/mL. The Ctrough ([4]; healthy subjects, 50 mg single dose, fed, PK Day 1, mean ± SD) was 5.6 ± 1.3 ng/mL, the “AUC0-24 (column AUC0-inf, footnote 1)” value [4, 5] was 980 ± 312.4^1 ng · h/mL and the Ctrough [4, 5] was 20.4 ± 9.0 ng/mL. The Ctrough ([4]; healthy subjects, 100 mg QD x 7 days, fasted, PK Day 7, mean ± SD) was 34 ng/mL and 34.0 ± 14.4 ng/mL, the Ctrough ([4]; healthy subjects, 100 mg single dose, fasted, PK Day 1, mean ± SD) was 17.1 ± 6.2 ng/mL and the exposure versus dose ([4]; healthy volunteers, dose range 5 to 100 mg) was “Dose proportional exposure”. The Cmax [4, 6] was 5.1 ± 1.1 ng/mL, the half-life [4, 6] was 1260 ± 270 min and the AUC(0-inf) [4, 6] was 110 ± 35.4 ng·h/mL. It also gave a Tmax ([4]; 5 mg, healthy subjects, 5 mg single dose, fasted) of 4 h, a Cmax [4, 7] of 11.5 ± 4.3 ng/mL and a half-life [4, 7] of 1440 ± 282 min. The AUC(0-inf) [4, 7] was 259 ± 123 ng·h/mL, the Tmax ([4]; 10 mg, healthy subjects, 10 mg single dose, fasted) was 5 h and the Cmax [4, 8] was 26.5 ± 11.1 ng/mL. The half-life [4, 8] was 1440 ± 192 min, the AUC(0-inf) [4, 8] was 570 ± 200 ng·h/mL and the Tmax ([4]; 25 mg, healthy subjects, 25 mg single dose, fasted) was 4 h. It also gave a Cmax [4, 9] of 50.9 ± 18.1 ng/mL, a half-life [4, 9] of 1320 ± 102 min and an AUC(0-inf) [4, 9] of 952 ± 336 ng·h/mL. It also gave a Tmax ([4]; 50 mg, healthy subjects, 50 mg single dose, fasted) of 4 h.
